Results reported in patent publication US20230374113A1, “FERRITIN NANOCAGE FUSED WITH PD-L1-BINDING PEPTIDE 1 AND USE THEREOF AS ANTICANCER IMMUNOTHERAPY AGENT” (KYUNGPOOK NATIONAL UNIVERSITY INDUSTRY-ACADEMIC COOPERATION …, priority 2020, published 2023).

Columns and labels:
GL26 glioblastoma = conditions: mouse, in vivo
Experimental: In addition, the glioblastoma targeting effect of the immune checkpoint blocking nanocage was identified. GL26, a glioblastoma cell line, was injected into the left side of the mouse brain to create an orthotopic GBM model and fluorescently labeled PBP1-N-FtH was injected into the tail vein [control: saline, ferritin].

[1] = tested on: MDA-MB231 cells expressing PD-L1; assay: Culture cell binding assay (confocal) on MDA-MB231 cells; assay type: cell-based; conditions: 100 nM, 4° C., 1 hour; anti-human ferritin heavy chain antibody staining
Experimental: (§1) Confocal laser scanning microscopy (Confocal) was performed. After culturing triple negative breast cancer cells (MDA-MB 231) or colorectal cancer cells (CT26), a group treated with 25 ng/ml of interferon-γ and a group without treatment were cultured at 37° C. for 24 hours. These cells are cancer cells expressing the PD-L1 receptor and are known to have expression increased upon interferon-γ treatment. […] In order to block nonspecific binding of PD-L1 proteins, blocking was performed using 1% BSA dissolved in PBS at room temperature for 1 hour, then BSA was removed, and PpNF, PpLF, and PpCF (100 nM) were reacted at 4° C. for 1 hour. After washing with PBS, a reaction was performed using anti-human ferritin heavy chain antibodies (1:200 ratio) for 1 hour, followed by staining (green). After fixing with 4% paraformaldehyde, observation was performed under a confocal microscope. To observe the nucleus, DAPI was dissolved in PBS in a ratio of 1:1000, and staining was performed at room temperature for 5-10 minutes (blue).

[2] = tested on: MCF-7 cells that do not express PD-L1; assay: Culture cell binding assay (confocal) on MCF-7 control cells; assay type: cell-based; conditions: 100 nM, 4° C., 1 hour; PD-L1-negative control cells
CT-2A glioma [3] = tested on: CT-2A glioma; set-up: species or system C57BL/6 mice; conditions: mouse, in vivo, iv
Experimental: (A) Representative images of the upper body of mice. The yellow circle indicates the tumor. C57BL/6 mice were implanted with CT-2A glioma cells (3×10^5). At 14 days after intracranial inoculation, the tumor-bearing mice were intravenously injected with Flamma 675-labeled PpNF or wFTH followed by in vivo scanning with the IVIS imaging system. (B) Ex vivo biodistribution was examined at 24 h postinjection.
B6 mice aged 6-8 weeks were anesthetized with an intraperitoneal injection of Zoletil 50 (20 mg/kg, Virba) and Rompun (4 mg/kg, Bayer). For stereotactic intracranial injections of CT-2A cells, the surgical site was shaved and prepared with 70% ethyl alcohol. After disinfection and incision of the skin, tumor cells were stereotaxically implanted in the brain using the following coordinates: AP=+0.2 mm; ML=+2 mm; DV=−3 mm from the bregma. CT-2A cells (10^4 cells) were resuspended in 3 μl of PBS and implanted at an infusion rate of 3 μl/5 min.
For in vivo targeting of PD-L1pep ferritin nanocages in intracranial brain tumors, CT-2A cells (3×10^5 cells) were resuspended in 3 μl of PBS and implanted in the brain. At 14 days after implantation of CT-2A cells, Flamma 675-labeled Pp1NF, Pp2NF, and wt ferritin were intravenously injected (n=3 mice/group). […] Fluorescence emission values were analyzed as photons per second per centimeter squared per steradian (p/s/cm^2/sr).

CT-2A glioma [4] = assay: Antitumor activity in orthotopic CT-2A glioma mouse model; assay type: in vivo, C57BL/6 mice; conditions: 5 mg/kg intravenously three times per week, six injections
Experimental: (A) Experimental scheme for antitumor treatments. CT-2A syngeneic mouse brain tumor cells were implanted into the brains of C57BL/6 mice. Treatments were initiated at 7 days after confirming tumor growth by MRI. PpNF (5 mg/kg, n=3) or wFTH (5 mg/kg, n=3) were intravenously injected three times per week. (B) Representative brain MRI images showing tumor growth at 7, 14, and 21 days. The dotted line indicates the tumor region. (C) Tumor volumes measured by MRI. (D) Body weights. Data represent mean±SEM (*p<0.05; t-test). The data presented are representative of three independent experiments. B6 mice aged 6-8 weeks were anesthetized with an intraperitoneal injection of Zoletil 50 (20 mg/kg, Virba) and Rompun (4 mg/kg, Bayer). For stereotactic intracranial injections of CT-2A cells, the surgical site was shaved and prepared with 70% ethyl alcohol. After disinfection and incision of the skin, tumor cells were stereotaxically implanted in the brain using the following coordinates: AP=+0.2 mm; ML=+2 mm; DV=−3 mm from the bregma. CT-2A cells (10^4 cells) were resuspended in 3 μl of PBS and implanted at an infusion rate of 3 μl/5 min. […] Tumor growth was examined by animal MRI (7T BioSpec 70/20USR) in the tumor-bearing mice using Onis 2.5 viewer software, and tumor volume was calculated (Average tumor cross-sectional area (mm^2)×summed thickness of tumor cross-sections (mm).

PD-1/PD-L1 binding = biological target: T1, PD-1/PD-L1 binding (Mus musculus, UniProt Q9EP73); assay: Co-culture of CT26 cancer cells and activated CD8+ T cells (immune checkpoint inhibitory function in vitro); assay type: cell-based
T1 construct: endogenous in cells
T1 sequence (Q9EP73 19-290): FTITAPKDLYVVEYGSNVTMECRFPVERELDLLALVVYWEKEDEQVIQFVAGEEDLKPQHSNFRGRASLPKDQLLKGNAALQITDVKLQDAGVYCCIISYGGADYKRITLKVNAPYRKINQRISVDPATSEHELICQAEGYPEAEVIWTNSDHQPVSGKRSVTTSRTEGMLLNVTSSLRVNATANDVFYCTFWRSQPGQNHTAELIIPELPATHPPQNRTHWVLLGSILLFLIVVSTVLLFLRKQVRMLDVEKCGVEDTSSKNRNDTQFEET
Experimental: CD8^+ T cells were extracted from the spleen obtained by sacrificing BALB/C mice. Extracted CD8^+ T cells were treated with interleukin-2/interleukin-15 and anti-CD-3 antibody/anti-CD-28 antibody each for 24 hours for activation. Prior to treating activated CD8^+ T cells with CFSE and performing symbiotic culture of tumor cells (CT26, mouse colon cancer), tumor cells were pretreated with anti-PD-L1 antibody, PpNF (25 nM or 50 nM), and PD-L1pep1 (50 nM), respectively, and interactions of PD-L1 of tumor cells and […] CD8^+ T cells were inhibited, respectively. After symbiotic culture for 24 hours, CD8^+ T cells were isolated (FIG. 4A). The degree of CFSE binding to isolated T cells was measured with a flow cytometer (FIG. 4B). In addition, the amount of interferon gamma secreted by isolated T cells was measured using an enzyme-linked immunosorbent assay (FIG. 4C).
CD8^+ T cells isolated from mice were activated (IL-2/IL-15 treatment and anti-CD3/anti-CD28 treatment), labeled with fluorescence (CFSE staining), and cultured with CT26 colorectal cancer cells.

[5] = tested on: CT26 cells expressing PD-L1; assay: Culture cell binding assay (confocal) on CT26 cells; assay type: cell-based, mouse; conditions: 100 nM, 4° C., 1 hour; anti-human ferritin heavy chain antibody staining
Experimental: as §1

[6] = tested on: GL26 cells overexpressing PD-L1; assay: In vitro binding to GL26 glioma cells; assay type: cell-based, mouse; conditions: 4° C., 1 h; compared to wFTH
Experimental: (§2) Mouse glioma cells, CT-2A or GL26 cells, were treated with PpNF or wild-type ferritin (wFTH) at 4° C. for 1 h; binding was monitored by antiferritin antibody (green). Nuclei were visualized by counterstaining with DAPI (blue). Scale bars: 30 μm.

CT26 tumor = assay type: in vivo, BALB/c wildtype mice
Experimental: CT26 cells were injected subcutaneously into the upper right thigh of BALB/c wildtype mice. When the tumor was about 100 mm^3 in size, mice were randomly divided into four groups. […] A total of 10 injections were performed once every two days (once every 4 days, repeated 6 times in total for anti-PD-L1 antibodies) to measure tumor size and weight of mice (FIGS. 7B and 7D). After 3 weeks, the tumor was removed by sacrificing mice and the tumor was weighed (FIG. 7C). The extracellular matrix of the removed tumor was degraded with collagenase to form single cells, and antibodies against labeled proteins of CD4^+ T cells, CD8^+ T cells, and regulatory T cells were each treated to analyze how many T cells are each present in the tumor by flow cytometry (FIGS. 7E to 7G).

[7] = tested on: CT-2A cells overexpressing PD-L1; assay: In vitro binding to CT-2A glioma cells; assay type: cell-based, mouse; conditions: 4° C., 1 h; compared to wFTH
Experimental: as §2

[8] = tested on: CD8+ T cells cocultured with GL26; assay: Triple coculture of CD8+ T cells with GL26 glioma cells and primary glia; assay type: cell-based, mouse; conditions: 25 nM, 48 h triple coculture, IFN-γ secretion, CD107a
Experimental: (§3) CD8^+ T cells were directly cocultured with CT-2A (A,B) or GL26 (C, D) glioma cells in the presence of glia. Cocultures were treated with 25 nM wild-type nanocage (wFTH), PD-L1pep1 ferritin nanocage (PpNF) or their corresponding buffer (buf), respectively. Fold changes in IFN-γ secretion during triple coculture using (A) CT-2A or (C) GL26 cells with the indicated treatments. T cell-only group was used as a control. (B) Proliferation of CD8^+ T cells during coculture with CT-2A and primary glia. The percentages of daughter cells upon cell division were determined using CellTrace Violet (CTV) dye. (D) Expression of CD107a on the surface of CD8^+ T cells after triple coculture using GL26. The percentages of CD107a^+ populations in live CD8^+ T cells were measured by flow cytometry. All graphs represent mean±SD; n=3 independent wells. (*p<0.05, **p<0.01, ***p<0.001, and ****p<0.0001; multiple comparisons were conducted using one-way ANOVA followed by Tukey's test.)
Primary glia were cultured from C57BL/6 mice, and the cells were seeded in a 96-well flat bottom plate at a density of 10^4 cells/well. […]
(§4) Cocultures were treated with 25 nM ferritin nanocages (PpNF or Pp2NF) including the wild-type nanocage (wFTH) or their corresponding buffer, respectively. […] IFN-γ concentrations were quantified with a mouse IFN-γ ELISA kit (R&D Systems Inc., SMIF00) as previously described. […]

[9] = Dynamic light scattering (DLS) analysis of cage size; assay type: physicochemical
[10] = Biotoxicity via blood and serologic analysis; assay type: in vivo, mice
Experimental: After antitumor animal experiments, blood and serum were collected from each group when sacrificing mice, and the amounts of red blood cells, hemoglobin, hematocrit, white blood cells, and neutrophils in the blood, blood urea nitrogen in serum, creatinine, alanine aminotransferase, and aspartate aminotransferase were measured and compared.

[11] = tested on: CD8+ T cells cocultured with CT-2A; assay: Triple coculture of CD8+ T cells with CT-2A glioma cells and primary glia; assay type: cell-based, mouse; conditions: 25 nM, 48 h triple coculture
Experimental: as §3, with “(*p<0.05, **p<0.01, ***p<0.001, and ****p<0.0001; multiple comparisons were conducted using one-way ANOVA followed by Tukey's test.)” left out
as §4
Annexin-V as described above. The percentages of CTV dilution upon cell division were measured by flow cytometry. All flow cytometry data were obtained using a BD FACS Verse cytometer and analyzed by FlowJo software (Tree Star).

PpNF: Ferritin nanocage: PD-L1-binding peptide 1 (CLQKTPKQC) inserted at nitrogen terminal of human ferritin heavy chain fragment (1-161) with GG linker
glioblastoma targeting (brain fluorescence signal) (GL26 glioblastoma): targeted to the tumor site on the left side of the brain
binding in MDA-MB231 cells [1]: bound
binding in MCF-7 cells [2]: the binding did not take place
BBB crossing (CT-2A glioma [3]): crossed the BBB
accumulation in glioblastoma in the brain (CT-2A glioma [3]): accumulated in glioblastoma expressed in the brain by 24 hours
antitumor effects (tumor volume by MRI) (CT-2A glioma [4]): showed antitumor effects
IFN-γ secreted by T cells (ELISA) (PD-1/PD-L1 binding; 24 hours co-culture, PpNF 25 nM or 50 nM): IFN-γ increment
immune checkpoint inhibitory effect versus comparators (PD-1/PD-L1 binding; versus PD-L1 antibody, PD-L1pep1 (50 nM)): better than that of PD-L1 antibody or PD-L1pep1
binding in CT26 cells [5]: bound
binding in GL26 glioma cells [6]: bound specifically
tumor growth (CT26 tumor; 10 mg/kg tail vein, 10 injections once every two days): significantly inhibited tumor growth compared to the control
weight of the tumor (CT26 tumor; after 3 weeks): much smaller
proportion of CD8+ T cells in the tumor (CT26 tumor; flow cytometry): increasing the proportion of CD8^+ T cells in the tumor
ratio of CD8+ T cells and regulatory T cells in the tumor (CT26 tumor; flow cytometry): significantly increased compared to the control
binding in CT-2A glioma cells [7]: bound specifically
activity of CD8+ T cells [8]: increased
cage size (DLS) [9]: about 24 nm
hematologic change ([10]; blood after antitumor animal experiments): no significant hematologic change
hepatotoxicity or nephrotoxicity (BUN, creatinine, ALT, AST) ([10]; serum after antitumor animal experiments): No hepatotoxicity or nephrotoxicity was observed
proliferation of CD8+ T cells ([11]; CTV dye): increased
activity of CD8+ T cells ([11]; IFN-γ secretion): increased
